This experiment has as its target T1, BRM (Homo sapiens, UniProt P51531).
T1 construct: Western Blot Screen of BRM Degradation in SW1573 Cells; endogenous in cells; host or cells: SW1573 cells
The experiment can be described thus: BRM degradation (Dmax and DC50) in SW1573 cells, Western blot screen / In-Cell Western screen. The class given is cell-based. Particulars: overnight (18-20 hours) treatment; for Dmax: read-out: Dmax (%)** (% degraded). Put shortly:
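SW1573 cells were treated with compound for 18–20 h (final 0.1% DMSO). BRM was quantified either by Western blot of RIPA lysates or by fixed-cell In-Cell Western (LI-COR, 800/680 nm), each normalised to alpha-tubulin, giving Dmax and DC50.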

T1 sequence (P51531 whole entry): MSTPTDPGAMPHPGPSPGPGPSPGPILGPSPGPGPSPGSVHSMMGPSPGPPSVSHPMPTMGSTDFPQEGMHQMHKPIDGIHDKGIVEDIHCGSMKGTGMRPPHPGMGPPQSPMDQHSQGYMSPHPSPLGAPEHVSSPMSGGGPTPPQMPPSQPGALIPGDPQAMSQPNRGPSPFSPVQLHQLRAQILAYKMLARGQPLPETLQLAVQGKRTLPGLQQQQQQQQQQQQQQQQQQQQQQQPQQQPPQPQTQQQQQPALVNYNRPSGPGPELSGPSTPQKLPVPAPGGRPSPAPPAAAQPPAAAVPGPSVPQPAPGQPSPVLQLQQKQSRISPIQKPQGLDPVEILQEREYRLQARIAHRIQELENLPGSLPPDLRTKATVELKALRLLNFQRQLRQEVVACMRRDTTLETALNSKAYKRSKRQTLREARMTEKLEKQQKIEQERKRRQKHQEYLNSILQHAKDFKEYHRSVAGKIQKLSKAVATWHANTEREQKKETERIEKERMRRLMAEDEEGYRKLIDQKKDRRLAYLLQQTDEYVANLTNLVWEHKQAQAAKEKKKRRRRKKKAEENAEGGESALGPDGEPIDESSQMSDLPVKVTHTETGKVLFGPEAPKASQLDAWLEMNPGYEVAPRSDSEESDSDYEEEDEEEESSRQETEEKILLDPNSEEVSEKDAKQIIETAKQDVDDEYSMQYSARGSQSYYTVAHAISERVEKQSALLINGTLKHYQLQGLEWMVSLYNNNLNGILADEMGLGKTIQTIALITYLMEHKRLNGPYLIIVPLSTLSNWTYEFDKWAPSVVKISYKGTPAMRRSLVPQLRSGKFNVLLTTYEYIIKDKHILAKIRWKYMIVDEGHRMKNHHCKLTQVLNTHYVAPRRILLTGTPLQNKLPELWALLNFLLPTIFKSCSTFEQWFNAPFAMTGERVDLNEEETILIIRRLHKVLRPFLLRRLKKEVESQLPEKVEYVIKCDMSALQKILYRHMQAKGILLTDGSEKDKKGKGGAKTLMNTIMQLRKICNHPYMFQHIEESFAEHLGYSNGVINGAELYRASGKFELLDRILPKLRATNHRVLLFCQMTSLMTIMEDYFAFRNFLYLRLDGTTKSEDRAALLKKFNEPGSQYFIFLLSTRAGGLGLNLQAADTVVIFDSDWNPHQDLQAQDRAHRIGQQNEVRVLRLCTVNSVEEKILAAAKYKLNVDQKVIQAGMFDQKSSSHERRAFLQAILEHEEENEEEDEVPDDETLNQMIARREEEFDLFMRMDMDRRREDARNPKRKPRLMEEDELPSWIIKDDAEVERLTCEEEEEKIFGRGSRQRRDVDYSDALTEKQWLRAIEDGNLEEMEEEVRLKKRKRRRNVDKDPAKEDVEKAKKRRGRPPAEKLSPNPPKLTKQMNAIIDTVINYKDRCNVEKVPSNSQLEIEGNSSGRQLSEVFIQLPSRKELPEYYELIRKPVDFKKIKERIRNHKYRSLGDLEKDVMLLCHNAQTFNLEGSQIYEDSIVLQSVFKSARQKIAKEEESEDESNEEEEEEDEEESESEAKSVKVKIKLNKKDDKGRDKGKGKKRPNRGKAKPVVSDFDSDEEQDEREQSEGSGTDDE

As for `Cc1ncsc1-c1ccc([C@H](C)NC(=O)[C@@H]2C[C@@H](O)CN2C(=O)[C@@H](c2cc(N3CCC(CN4CCC(OC(=O)N5CCN(c6cc(-c7ccccc7O)nnc6N)CC5)CC4)CC3)no2)C(C)C)cc1` [Compound 65, 1-[(1-{5-[(2R)-1-[(2S,4R)-4-hydroxy-2-{[(1S)-1-[4-(4-methyl-1,3-thiazol-5-yl)phenyl]ethyl]carbamoyl}pyrrolidin-1-yl]-3-methyl-1-oxobutan-2-yl]-1,2-oxazol-3-yl}piperidin-4-yl)methyl]piperidin-4-yl 4-[3-amino-6-(2-hydroxyphenyl)pyridazin-4-yl]piperazine-1-carboxylate], the DC50 was < 2.5 nM and the maximal degradation (Dmax) is > 75%.

Consider `CC(C)[C@@H](C(=O)N1C[C@H](O)C[C@H]1C(=O)N[C@@H](C)c1ccc(C#N)cc1)c1cc(OCCN2CCN(CCOc3cc(N4C5CCC4CN(c4cc(-c6ccccc6O)nnc4N)C5)ccn3)CC2)no1` [Compound 66, (2S,4R)-1-[(2R)-2-{3-[2-(4-{2-[(4-{3-[3-amino-6-(2-hydroxyphenyl)pyridazin-4-yl]-3,8-diazabicyclo[3.2.1]octan-8-yl}pyridin-2-yl)oxy]ethyl}piperazin-1-yl)ethoxy]-1,2-oxazol-5-yl}-3-methylbutanoyl]-N-[(1S)-1-(4-cyanophenyl)ethyl]-4-hydroxypyrrolidine-2-carboxamide], for which the half-maximal degradation concentration (DC50) fell in the range of 2.5 to 10 nM and the Dmax was > 75%.

For `Cc1ncsc1-c1ccc([C@H](C)NC(=O)[C@@H]2C[C@@H](O)CN2C(=O)[C@H](c2cc(O[C@H]3C[C@H](CN4CCC(O[C@H]5C[C@H](N6CCOC7(CCN(c8cc(-c9ccccc9O)nnc8N)CC7)C6)C5)CC4)C3)no2)C(C)C)cc1` [Compound 67, (2S,4R)-4-hydroxy-N-[(1S)-1-[4-(4-methyl-1,3-thiazol-5-yl)phenyl]ethyl]-1-[(2S)-3-methyl-2-{3-[(1r,3r)-3-({4-[(1r,3r)-3-{9-[3-amino-6-(2-hydroxyphenyl)pyridazin-4-yl]-1-oxa-4,9-diazaspiro[5.5]undecan-4-yl}cyclobutoxy]piperidin-1-yl}methyl)cyclobutoxy]-1,2-oxazol-5-yl}butanoyl]pyrrolidine-2-carboxamide], the DC50 was 10 to 30 nM and the Dmax is > 75%.

Take `Cc1ncsc1-c1ccc([C@H](C)NC(=O)[C@@H]2C[C@@H](O)CN2C(=O)[C@@H](c2cc(O[C@H]3C[C@H](CN4CCC(O[C@H]5C[C@H](N6CCOC7(CCN(c8cc(-c9ccccc9O)nnc8N)CC7)C6)C5)CC4)C3)no2)C(C)C)cc1` [Compound 68, (2S,4R)-4-hydroxy-N-[(1S)-1-[4-(4-methyl-1,3-thiazol-5-yl)phenyl]ethyl]-1-[(2R)-3-methyl-2-{3-[(1r,3r)-3-({4-[(1r,3r)-3-{9-[3-amino-6-(2-hydroxyphenyl)pyridazin-4-yl]-1-oxa-4,9-diazaspiro[5.5]undecan-4-yl}cyclobutoxy]piperidin-1-yl}methyl)cyclobutoxy]-1,2-oxazol-5-yl}butanoyl]pyrrolidine-2-carboxamide]: the DC50 was < 2.5 nM and the Dmax is > 75%.

`Cc1ncsc1-c1ccc([C@H](C)NC(=O)[C@@H]2C[C@@H](O)CN2C(=O)[C@@H](c2cc(N3CCC(CN4CCC(O[C@H]5C[C@H](N6CCC(C(C)n7cc(/C=C/c8cc(-c9ccccc9O)nnc8N)cn7)CC6)C5)CC4)CC3)no2)C(C)C)cc1` (stereo partly drawn) [Compound 69, (2S,4R)-4-hydroxy-N-[(1S)-1-[4-(4-methyl-1,3-thiazol-5-yl)phenyl]ethyl]-1-[(2R)-3-methyl-2-{3-[4-({4-[(1r,3r)-3-[4-(1-{4-[(1E)-2-[3-amino-6-(2-hydroxyphenyl)pyridazin-4-yl]ethenyl]-1H-pyrazol-1-yl}ethyl)piperidin-1-yl]cyclobutoxy]piperidin-1-yl}methyl)piperidin-1-yl]-1,2-oxazol-5-yl}butanoyl]pyrrolidine-2-carboxamide]: the DC50 is < 2.5 nM and the Dmax is > 75%.

`Cc1ncsc1-c1ccc([C@H](C)NC(=O)[C@@H]2C[C@@H](O)CN2C(=O)[C@@H](c2cc(N3CCC(CN4CCC5(CC4)CC(N4CCC[C@@H](CN6C7CCC6CN(c6cc(-c8ccccc8O)nnc6N)C7)C4)C5)CC3)no2)C(C)C)cc1` [Compound 70, (2S,4R)-1-[(2R)-2-{3-[4-({2-[(3R)-3-({3-[3-amino-6-(2-hydroxyphenyl)pyridazin-4-yl]-3,8-diazabicyclo[3.2.1]octan-8-yl}methyl)piperidin-1-yl]-7-azaspiro[3.5]nonan-7-yl}methyl)piperidin-1-yl]-1,2-oxazol-5-yl}-3-methylbutanoyl]-4-hydroxy-N-[(1S)-1-[4-(4-methyl-1,3-thiazol-5-yl)phenyl]ethyl]pyrrolidine-2-carboxamide]: the DC50 is < 2.5 nM and the Dmax was > 75%.

`Cc1ncsc1-c1ccc([C@H](C)NC(=O)[C@@H]2C[C@@H](O)CN2C(=O)[C@@H](c2cc(N3CCC(CN4CCC5(CC4)CC(N4CCC[C@@](O)(CN6C7CCC6CN(c6cc(-c8ccccc8O)nnc6N)C7)C4)C5)CC3)no2)C(C)C)cc1` [Compound 71, (2S,4R)-1-[(2R)-2-{3-[4-({2-[(3S)-3-({3-[3-amino-6-(2-hydroxyphenyl)pyridazin-4-yl]-3,8-diazabicyclo[3.2.1]octan-8-yl}methyl)-3-hydroxypiperidin-1-yl]-7-azaspiro[3.5]nonan-7-yl}methyl)piperidin-1-yl]-1,2-oxazol-5-yl}-3-methylbutanoyl]-4-hydroxy-N-[(1S)-1-[4-(4-methyl-1,3-thiazol-5-yl)phenyl]ethyl]pyrrolidine-2-carboxamide]: the 50% degradation concentration (DC50) was < 2.5 nM and the Dmax was > 75%.

For `CC(C)[C@@H](C(=O)N1C[C@H](O)C[C@H]1C(=O)N[C@@H](C)c1ccc(-c2scnc2C#CCOCCOCCOCCOc2cc(N3C4CCC3CN(c3cc(-c5ccccc5O)nnc3N)C4)ccn2)cc1)N1Cc2ccccc2C1=O` [Compound 72, (2S,4R)-N-[(1S)-1-[4-(4-{3-[2-(2-{2-[(4-{3-[3-amino-6-(2-hydroxyphenyl)pyridazin-4-yl]-3,8-diazabicyclo[3.2.1]octan-8-yl}pyridin-2-yl)oxy]ethoxy}ethoxy)ethoxy]prop-1-yn-1-yl}-1,3-thiazol-5-yl)phenyl]ethyl]-4-hydroxy-1-[(2S)-3-methyl-2-(1-oxo-2,3-dihydro-1H-isoindol-2-yl)butanoyl]pyrrolidine-2-carboxamide], the DC50 is ≥ 30 nM.

As to `Cc1ncsc1-c1ccc([C@H](C)NC(=O)[C@@H]2C[C@@H](O)CN2C(=O)[C@@H](c2cc(N3CCC(CN4CCC5(CC4)CC(N4C[C@H](CN6C7CCC6CN(c6cc(-c8ccccc8O)nnc6N)C7)O[C@H](C)C4)C5)CC3)no2)C(C)C)cc1` [Compound 73, (2S,4R)-1-[(2R)-2-{3-[4-({2-[(2R,6R)-2-({3-[3-amino-6-(2-hydroxyphenyl)pyridazin-4-yl]-3,8-diazabicyclo[3.2.1]octan-8-yl}methyl)-6-methylmorpholin-4-yl]-7-azaspiro[3.5]nonan-7-yl}methyl)piperidin-1-yl]-1,2-oxazol-5-yl}-3-methylbutanoyl]-4-hydroxy-N-[(1S)-1-[4-(4-methyl-1,3-thiazol-5-yl)phenyl]ethyl]pyrrolidine-2-carboxamide], the DC50 is < 2.5 nM and the Dmax was > 75%.

(Values after patent US20250059198A1, “BRM DEGRADING COMPOUNDS AND ASSOCIATED METHODS OF USE” (Arvinas Operations, Inc., priority 2021, published 2025).)
